Measured values from EP0942741B1, “LECTIN COMPOSITIONS AND USES THEREOF” (Alizyme Therapeutics Limited, priority 1996, dated 1997).

What was measured:
[1] = Protection of rats from 5-FU chemotherapy by oral PHA (Example 7); type: in vivo
Method: (§1) 300mg of 5-fluorouracil was stirred in 14ml of distilled water. 1M NaOH was added slowly until the 5-FU had dissolved. The solution was made up to a final volume of 20 ml. The final pH of the solution was 8.3. A dose of 150 mg/kg body weight was administered to the animal by intraperitoneal injection. Immediately after the injection, the rats were offered 15 g of the control diet and food was available ad-libitum for the remainder of the experiment.
Four groups, each consisting of 5 rats were maintained on a precise dietary regime for a period of 7 days (Table 11).
Rats (approx […]) pre-dosed with PHA were offered 10 g of the control diet (Table 1) containing 10% lactalbumin. Each animal was given the equivalent of 20 mg PHA in 0.9% saline by gavage. Rats were offered control diet in two feeds at 1000 & 1700 hours. The amount of food given was strictly paired to the amount of diet eaten by the PHA pre-dosed animals. If the animals were immediately post-dosed with PHA, the lectin was administered two hours post 5-FU injection by gavage. Animals neither pre- or post dosed with PHA were administered with 1 ml 0.9% saline by gavage. After 3 days, animals in three of the groups were administered a dose of 150 mg/kg body weight 5-FU. Body weight of each animal was recorded daily and the average body weight calculated.
At the end of the experiment, the animals were sacrificed and then dissected. The dry weights of the major organs were recorded for each animal and the average weights calcurated.
After 7 days, blood was collected from the animals and both the key molecular and cellular components were analysed.

[2] = Dose range of PHA pre-dosing against 5-FU damage of the gastrointestinal tract (Example 8); type: in vivo, rats; conditions: pair fed, 150 mg/kg/BW 5-FU, day 9
Method: as §1
3 groups of rats (5 rats per group) were fed on the standard diet (Table 1) and gavaged daily with either 200, 100 & 50 mg/kg/day PHA for 3 days. The food intake for each rat was recorded daily. A second set of 3 control groups of rats (5 rats per group) were fed on the standard diet and gavaged daily with 1 ml saline for 3 days. Each animal of the control group was pair fed to an animal in the PHA dosed groups. On the morning of the 4th day, each animal was injected with 150 mg/kg bodyweight 5-FU and then fed the standard diet for 6 days. 2 rats were fed on the standard diet ad libitum for 9 days. On the 9th day, the rats were killed and the animals dissected. After freezing in liquid nitrogen, the wet tissue weights were recorded.

[3] = Treatment 2: LA 3d, inject 5-FU (150 mg/kg i.p.), LA 4d, after 7 days
[4] = Treatment 2: LA 3d, inject 5-FU (150 mg/kg i.p.), LA 4d, blood after 7 days
[5] = Paired control 50 mg/kg/day: saline gavage
[6] = Paired control 100 mg/kg/day: saline gavage
[7] = Paired control 200 mg/kg/day: saline gavage

With `O=c1[nH]cc(F)c(=O)[nH]1` [5-FU, 5-fluorouracil] the “Caecum average dry weight” value [1, 3] was 99 ± 11 mg, the “Colon average dry weight” value [1, 3] was 130 ± 11 mg and the “Ileum average dry weight” value [1, 3] was 94 ± 11 mg. For the same molecule, the “Jejunum average dry weight” value [1, 3] was 90 ± 8 mg, the “Small intestine average dry weight” value [1, 3] was 509 ± 55 mg and the “Stomach average dry weight” value [1, 3] was 140 ± 7 mg. For the same molecule, the HGB [1, 4] was 12.7 g/100ml, the MCH [1, 4] was 17.3 pg and the MCHC [1, 4] was 34.3 g/100ml. The MCV [1, 4] was 50.4 µm^3, the PLT [1, 4] was 274x10^3 no/mm^3 and the WBC [1, 4] was 3x10^3 no/mm^3. The fresh body weight ([1]; Treatment 2: LA 3d, inject 5-FU (150 mg/kg i.p.), LA 4d, column 1 of 8 (day not given)) was 102.5 g, the fresh body weight ([1]; Treatment 2: LA 3d, inject 5-FU (150 mg/kg i.p.), LA 4d, column 2 of 8 (day not given)) was 99.9 g and the fresh body weight ([1]; Treatment 2: LA 3d, inject 5-FU (150 mg/kg i.p.), LA 4d, column 3 of 8 (day not given)) was 98.8 g. For the same molecule, the fresh body weight ([1]; Treatment 2: LA 3d, inject 5-FU (150 mg/kg i.p.), LA 4d, column 4 of 8 (day not given)) was 101.9 g, the fresh body weight ([1]; Treatment 2: LA 3d, inject 5-FU (150 mg/kg i.p.), LA 4d, column 5 of 8 (day not given)) was 108 g and the fresh body weight ([1]; Treatment 2: LA 3d, inject 5-FU (150 mg/kg i.p.), LA 4d, column 6 of 8 (day not given)) was 110.2 g. For the same molecule, the fresh body weight ([1]; Treatment 2: LA 3d, inject 5-FU (150 mg/kg i.p.), LA 4d, column 7 of 8 (day not given)) was 107.9 g, the fresh body weight ([1]; Treatment 2: LA 3d, inject 5-FU (150 mg/kg i.p.), LA 4d, column 8 of 8 (day not given)) was 106.2 g and the daily food intake ([1]; Treatment 2: LA 3d, inject 5-FU (150 mg/kg i.p.), LA 4d, day 1 (pair fed, before injection)) was 4.8 g. For the same molecule, the daily food intake ([1]; Treatment 2: LA 3d, inject 5-FU (150 mg/kg i.p.), LA 4d, day 2 (pair fed, before injection)) was 6.22 g, the daily food intake ([1]; Treatment 2: LA 3d, inject 5-FU (150 mg/kg i.p.), LA 4d, day 3 (pair fed, before injection)) was 9.22 g and the daily food intake ([1]; Treatment 2: LA 3d, inject 5-FU (150 mg/kg i.p.), LA 4d, day 4) was 11.3 g. The daily food intake ([1]; Treatment 2: LA 3d, inject 5-FU (150 mg/kg i.p.), LA 4d, day 5) was 10.4 g, the daily food intake ([1]; Treatment 2: LA 3d, inject 5-FU (150 mg/kg i.p.), LA 4d, day 6) was 6.8 g and the daily food intake ([1]; Treatment 2: LA 3d, inject 5-FU (150 mg/kg i.p.), LA 4d, day 7) was 5.9 g. The “reduction of small intestine dry weight” value ([1]; only lactalbumin in the diet, 5-FU 150 mg/kg) was ~50%, the Heum wet weight [2, 5] was 722 mg and the Jejunum wet weight [2, 5] was 761 mg. It also gave a Heum wet weight [2, 6] of 747 mg, a Jejunum wet weight [2, 6] of 783 mg and a Heum wet weight [2, 7] of 753 mg. For the same molecule, the Jejunum wet weight [2, 7] was 848 mg.
